Source: patent US5416222A, “3-pyrrolidine methanamines wherein the alpha-carbon is substituted by 1 or 2 lower alkyl groups which are intermediates for pyridone-carboxylic acid derivatives” (Daiichi Seiyaku Co., Ltd., priority 1985, dated 1995)
Values after ≈ are worked out from the molar mass of the structure shown.

What was measured:
Test in all cases: antimicrobial activity, MIC, standard process of Japan Society of Chemotherapy
Format in all cases: cell-based
[1] = test system: E. coli, NIHJ; settings: for MIC: Escherichia coli, read-out: minimum growth inhibitory concentration (MIC)
Description: (§1) The antimicrobial activities of the compounds of the present invention were determined according to a standard process designated by the Japan Society of Chemotherapy and the minimum growth inhibitory concentrations (MIC) (μg/ml) the compounds were determined.

[2] = test system: Sh. flexneri, 2a5503; settings: for MIC: Shigella flexneri, read-out: minimum growth inhibitory concentration (MIC)
Description: as §1

[3] = test system: Pr. vulgaris, 3167; settings: for minimum growth inhibitory concentration (MIC): Pr. vulgaris; for MIC: Proteus vulgaris, 3167, Pr. vulgaris, read-out: minimum growth inhibitory concentration (MIC)
Description: as §1

[4] = test system: S. epidermidis, 56500; settings: for minimum growth inhibitory concentration (MIC): S. epidermidis; for MIC: Staphylococcus epidermidis, 56500, S. epidermidis, read-out: minimum growth inhibitory concentration (MIC)
Description: as §1

[5] = test system: Pr. mirabilis, IF03849; settings: for minimum growth inhibitory concentration (MIC): Pr. mirabilis; for MIC: Proteus mirabilis, IF03849, Pr. mirabilis, read-out: minimum growth inhibitory concentration (MIC)
Description: as §1

[6] = test system: Ps. aeruginosa, 2128; settings: for minimum growth inhibitory concentration (MIC): Ps. aeruginosa; for MIC: Pseudomonas aeruginosa, 2128, Ps. aeruginosa, read-out: minimum growth inhibitory concentration (MIC)
Description: as §1

[7] = test system: Str. pyogenes, G-36; settings: for minimum growth inhibitory concentration (MIC): Str. pyogenes; for MIC: Streptococcus pyogenes, G36, Str. pyogenes, read-out: minimum growth inhibitory concentration (MIC)
Description: as §1

[8] = test system: Ser. marcescens, 13001; settings: for minimum growth inhibitory concentration (MIC): Ser. marcescens; for MIC: Serratia marcescens, 13001, Ser. marcescens, read-out: minimum growth inhibitory concentration (MIC)
Description: as §1

[9] = test system: Ps. aeruginosa, 2063; settings: for minimum growth inhibitory concentration (MIC): Ps. aeruginosa; for MIC: Pseudomonas aeruginosa, 2063, Ps. aeruginosa, read-out: minimum growth inhibitory concentration (MIC)
Description: as §1

[10] = test system: Ps. maltophilia, IID1275; settings: for MIC: Stenotrophomonas maltophilia, IID1275, Ps. maltophilia, read-out: minimum growth inhibitory concentration (MIC)
Description: as §1

[11] = test system: Ps. cepacia, IID1340; settings: for minimum growth inhibitory concentration (MIC): Ps. cepacia; for MIC: Burkholderia cepacia, IID1340, Ps. cepacia, read-out: minimum growth inhibitory concentration (MIC)
Description: as §1

[12] = test system: S. aureus, 209P; settings: for MIC: Staphylococcus aureus, read-out: minimum growth inhibitory concentration (MIC)
Description: as §1

[13] = test system: Str. faecalis, ATCC 19433; settings: for minimum growth inhibitory concentration (MIC): Str. faecalis; for MIC: Enterococcus faecalis, ATCC19433, Str. faecalis, read-out: minimum growth inhibitory concentration (MIC)
Description: as §1

Compound | minimum growth inhibitory concentration (MIC) [7] [µg/mL] | MIC [1] [µg/mL] | MIC [2] [µg/mL] | MIC [3] [µg/mL] | MIC [4] [µg/mL] | MIC [5] [µg/mL] | MIC [7] [µg/mL] | MIC [10] [µg/mL] | MIC [11] [µg/mL] | MIC [12] [µg/mL] | MIC [13] [µg/mL] | MIC [6] [µg/mL] | MIC [8] [µg/mL] | MIC [9] [µg/mL] | further results
1-Cyclopropyl-6,8-difluoro-1,4-dihydro-7-[3-(2S)-pyrrolidinyl)-1-pyrrolidinyl)-1-pyrrolidinyl]-4-oxoquinoline-3-carboxylic acid [Example 17] | 0.10 | – | – | – | – | – | – | – | – | – | – | – | – | – | minimum growth inhibitory concentration (MIC) [1]: ≤ 0.05 µg/mL; minimum growth inhibitory concentration (MIC) [2]: ≤ 0.05 µg/mL; minimum growth inhibitory concentration (MIC) [3]: 0.10 µg/mL; minimum growth inhibitory concentration (MIC) [4]: 0.10 µg/mL; minimum growth inhibitory concentration (MIC) [5]: 0.20 µg/mL; minimum growth inhibitory concentration (MIC) [6]: 0.20 µg/mL; minimum growth inhibitory concentration (MIC) [8]: 0.10 µg/mL; minimum growth inhibitory concentration (MIC) [9]: 0.39 µg/mL; minimum growth inhibitory concentration (MIC) ([10]; Ps. maltophilia): 0.39 µg/mL; minimum growth inhibitory concentration (MIC) [11]: 0.78 µg/mL; minimum growth inhibitory concentration (MIC) [12]: ≤ 0.05 µg/mL; minimum growth inhibitory concentration (MIC) [13]: 0.10 µg/mL
CC(N)C1CCN(c2c(F)cc3c(=O)c(C(=O)O)cn(C4CC4)c3c2F)C1 (single isomer, unassigned) [Example 1, 7-[3-(1-Aminoethyl)-1-pyrrolidinyl]-1-cyclopropyl-6,8-difluoro-1,4-dihydro-4-oxoquinoline-3-carboxylic acid] | – | ≤ 0.05 | ≤ 0.05 | 0.1 (≈ 0.265 µM) | 0.1 (≈ 0.265 µM) | 0.1 (≈ 0.265 µM) | 0.1 (≈ 0.265 µM) | 0.2 (≈ 0.53 µM) | 0.78 (≈ 2.07 µM) | 0.1 (≈ 0.265 µM) | 0.1 (≈ 0.265 µM) | – | – | – | minimum growth inhibitory concentration (MIC) [6]: 0.20 µg/mL; minimum growth inhibitory concentration (MIC) [8]: 0.20 µg/mL; minimum growth inhibitory concentration (MIC) [9]: 0.78 µg/mL
CCn1cc(C(=O)O)c(=O)c2cc(F)c(N3CCC(C(C)N)C3)c(F)c21 (single isomer, unassigned) [Example 3, 7-[3-(1-Aminoethyl)-1-pyrrolidinyl]-1-ethyl-6,8-difluoro-1,4-dihydro-4-oxoquinoline-3-carboxylic acid] | 0.39 | ≤ 0.05 | ≤ 0.05 | – | – | 0.2 (≈ 0.547 µM) | – | 0.78 (≈ 2.13 µM) | 1.56 (≈ 4.27 µM) | ≤ 0.05 | – | 0.2 (≈ 0.547 µM) | 0.2 (≈ 0.547 µM) | 0.39 (≈ 1.07 µM) | minimum growth inhibitory concentration (MIC) [3]: 0.20 µg/mL; minimum growth inhibitory concentration (MIC) [4]: 0.20 µg/mL; minimum growth inhibitory concentration (MIC) [13]: 0.39 µg/mL
CNC(C)C1CCN(c2c(F)cc3c(=O)c(C(=O)O)cn(C4CC4)c3c2F)C1 (single isomer, unassigned) [Example 6, 1-Cyclopropyl-6,8-difluoro-1,4-dihydro-7-[3-(1-methylaminoethyl)-1-pyrrolidinyl]-4-oxoquinoline-3-carboxylic acid] | 0.20 | ≤ 0.05 | ≤ 0.05 | 0.1 (≈ 0.255 µM) | 0.1 (≈ 0.255 µM) | – | – | 0.2 (≈ 0.511 µM) | 0.78 (≈ 1.99 µM) | ≤ 0.05 | – | 0.2 (≈ 0.511 µM) | 0.2 (≈ 0.511 µM) | 0.39 (≈ 0.996 µM) | minimum growth inhibitory concentration (MIC) [5]: 0.20 µg/mL; minimum growth inhibitory concentration (MIC) [13]: 0.20 µg/mL
CCC(N)C1CCN(c2c(F)cc3c(=O)c(C(=O)O)cn(CC)c3c2F)C1 (single isomer, unassigned) [Example 20, 1-ethyl-6,8-difluoro-7-[3-(1-aminopropyl)-1-pyrrolidinyl]-1,4-dihydro-4-oxoquinoline-3-carboxylic acid] | – | ≤ 0.05 | ≤ 0.05 | ≤ 0.05 | ≤ 0.05 | 0.1 (≈ 0.264 µM) | ≤ 0.05 | 0.2 (≈ 0.527 µM) | 0.39 (≈ 1.03 µM) | ≤ 0.05 | ≤ 0.05 | 0.2 (≈ 0.527 µM) | 0.1 (≈ 0.264 µM) | 0.39 (≈ 1.03 µM) | –
CCC(N)C1CCN(c2c(F)cc3c(=O)c(C(=O)O)cn(C4CC4)c3c2F)C1 (single isomer, unassigned) [Example 21, 1-Cyclopropyl-6,8-difluoro-7-[3-(1aminopropyl)-1-pyrrolidinyl]-1,4-dihydro-4-oxoquinoline-3-carboxylic acid] | – | ≤ 0.05 | ≤ 0.05 | ≤ 0.05 | ≤ 0.05 | 0.1 (≈ 0.255 µM) | ≤ 0.05 | ≤ 0.05 | 0.2 (≈ 0.511 µM) | ≤ 0.05 | ≤ 0.05 | 0.1 (≈ 0.255 µM) | ≤ 0.05 | 0.2 (≈ 0.511 µM) | –
CC(N)C1CCN(c2nc3c(cc2F)c(=O)c(C(=O)O)cn3C2CC2)C1 (stereo not shown) [Example 5, 7-[3-(1-Aminoethyl)-1-pyrrolidinyl]-1-cyclopropyl-6-fluoro-1,4-dihydro-4-oxo-1,8-naphthyridine-3-carboxylic acid] | – | ≤ 0.05 | ≤ 0.05 | 0.05 (≈ 0.139 µM) | ≤ 0.05 | – | 0.39 (≈ 1.08 µM) | 0.39 (≈ 1.08 µM) | – | ≤ 0.05 | 0.2 (≈ 0.555 µM) | – | – | – | minimum growth inhibitory concentration (MIC) [5]: 0.39 µg/mL; minimum growth inhibitory concentration (MIC) [6]: 6.20 µg/mL; minimum growth inhibitory concentration (MIC) [8]: 0.20 µg/mL; minimum growth inhibitory concentration (MIC) [9]: 0.78 µg/mL; minimum growth inhibitory concentration (MIC) [11]: 1.56 µg/mL
CNC(C)C1CCN(c2nc3c(cc2F)c(=O)c(C(=O)O)cn3C2CC2)C1 (stereo not shown) [Example 8] | – | ≤ 0.05 | ≤ 0.05 | 0.1 (≈ 0.267 µM) | 0.2 (≈ 0.534 µM) | 0.39 (≈ 1.04 µM) | 0.78 (≈ 2.08 µM) | 0.78 (≈ 2.08 µM) | 1.56 (≈ 4.17 µM) | 0.1 (≈ 0.267 µM) | 0.39 (≈ 1.04 µM) | 0.39 (≈ 1.04 µM) | 0.39 (≈ 1.04 µM) | 1.56 (≈ 4.17 µM) | –
CCC(N)C1CCN(c2c(F)cc3c(=O)c(C(=O)O)cn(C4CC4)c3c2F)C1 (stereo not shown) [Example 9, 7-[3-(1-Aminopropyl)-1-pyrrolidinyl]-1-cyclopropyl-6,8-difluoro-1,4-dihydro-4-oxoquinoline-3-carboxylic acid] | ≤ 0.05 | ≤ 0.05 | ≤ 0.05 | ≤ 0.05 | ≤ 0.05 | 0.1 (≈ 0.255 µM) | – | 0.1 (≈ 0.255 µM) | 0.39 (≈ 0.996 µM) | ≤ 0.05 | 0.1 (≈ 0.255 µM) | 0.2 (≈ 0.511 µM) | ≤ 0.05 | 0.78 (≈ 1.99 µM) | –
CCC(N)C1CCN(c2c(F)cc3c(=O)c(C(=O)O)cn(CC)c3c2F)C1 (stereo not shown) [Example 10, 7-[3-(1-Aminopropyl)-1-pyrrolindinyl]-1-ethyl-6,8-difluoro-1,4-dihydro-4-oxoquinoline-3-carboxylic acid] | – | ≤ 0.05 | ≤ 0.05 | 0.1 (≈ 0.264 µM) | 0.1 (≈ 0.264 µM) | 0.2 (≈ 0.527 µM) | ≤ 0.05 | 0.39 (≈ 1.03 µM) | 1.56 (≈ 4.11 µM) | ≤ 0.05 | ≤ 0.05 | 6.39 (≈ 16.8 µM) | 0.2 (≈ 0.527 µM) | 1.56 (≈ 4.11 µM) | –
CCn1cc(C(=O)O)c(=O)c2cc(F)c(N3CCC(C(C)(C)N)C3)c(F)c21 (stereo not shown) [Example 12, 7-[3-(1-amino-1-methyl)ethyl-1-pyrrolidinyl]-1-ethyl-6,8-difluoro-1,4-dihydro-4-oxoquinoline-3-carboxylic acid] | – | ≤ 0.05 | ≤ 0.05 | 0.2 (≈ 0.527 µM) | 0.1 (≈ 0.264 µM) | 0.39 (≈ 1.03 µM) | 0.1 (≈ 0.264 µM) | 0.39 (≈ 1.03 µM) | 1.56 (≈ 4.11 µM) | ≤ 0.05 | 0.1 (≈ 0.264 µM) | 0.39 (≈ 1.03 µM) | 0.39 (≈ 1.03 µM) | 1.56 (≈ 4.11 µM) | –
CNC(C)(C)C1CCN(c2c(F)cc3c(=O)c(C(=O)O)cn(C4CC4)c3c2F)C1 (stereo not shown) [Example 14, 1-Cyclopropyl-6,8-difluoro-1,4-dihydro-7-[3-(1-methyl-1-methylamino)ethyl-1-pyrrolidinyl]-4-oxoquinoline-3-carboxylic acid] | – | ≤ 0.05 | ≤ 0.05 | 0.2 (≈ 0.493 µM) | 0.2 (≈ 0.493 µM) | 0.2 (≈ 0.493 µM) | 0.1 (≈ 0.247 µM) | 0.39 (≈ 0.962 µM) | 1.56 (≈ 3.85 µM) | 0.2 (≈ 0.493 µM) | 0.1 (≈ 0.247 µM) | 0.39 (≈ 0.962 µM) | 0.39 (≈ 0.962 µM) | 3.13 (≈ 7.72 µM) | –
NC1(C2CCN(c3c(F)cc4c(=O)c(C(=O)O)cn(C5CC5)c4c3F)C2)CC1 (stereo not shown) [Example 15] | – | ≤ 0.05 | ≤ 0.05 | 0.1 (≈ 0.257 µM) | ≤ 0.05 | 0.2 (≈ 0.514 µM) | ≤ 0.05 | 0.2 (≈ 0.514 µM) | 0.39 (≈ 1 µM) | ≤ 0.05 | 0.2 (≈ 0.514 µM) | 0.2 (≈ 0.514 µM) | 0.2 (≈ 0.514 µM) | 0.39 (≈ 1 µM) | –
